Experiments:
[1] = target: T1, Avi-KRAS WT (1-169) GppNHp/RAF1 RBD-3xFLAG (52-151) (Homo sapiens, UniProt P01116); experiment: Raf1-KRAS WT-GppNHP disruption HTRF assay (Biological Example 1); assay type: binding
T1 construct: Avi-KRAS WT (1-169)
In short: (§1)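 Using HTRF, the loss of KRAS–effector RAF1 complex was quantified in 50 mM Tris pH 7.5 buffer with 100 mM NaCl and 0.1% BSA. The protein step and reagent step ran 1 h each at room temperature. Activity normalized with DMSO taken as 100%.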

[2] = target: T2, Avi-KRAS G12D (1-169) GppNHp/RAF1 RBD-3xFLAG (52-151) (Homo sapiens, UniProt P01116, G12D); experiment: Raf1-KRAS G12D-GppNHP disruption HTRF assay (Biological Example 1); assay type: binding
T2 construct: Avi-KRAS G12D (1-169)
In short: as §1

SW1900 cells (KRAS G12D) = experiment: Cell-based pERK HTRF assay in SW1900 cells (Biological Example 5); details: Homo sapiens, SW1990, SW1990 cells (text: SW1900, KRAS G12D)
Experimental: Biological Example 5: Cell-based PERK HTRF assay in AsPC-1, SW1900, HPAC, Capan-2, RKN, H358, HCT116, KP-2, H1573, A549, MKN1, and HT1080 cells
The inhibition of ERK phosphorylation, as measured using the HTRF Advanced Phospho-ERK 1/2 (Thr202/Tyr204) Detection Assay kit (Perkin Elmer), was used to determine the effectiveness of test compounds in disrupting KRAS-driven protein/effector signaling in cells.
On day 1, cells were seeded into 96-well plates at 2.5×10^4 cells/well in 100 μL of complete growth media supplemented with 10% fetal bovine serum (FBS) and incubated at 37° C., in the presence of 5% CO2.
On day 2, cells were treated with compounds diluted in DMSO at 0.25% final DMSO concentration. Compounds were dosed in a 9-point concentration curve with three-fold dilution between concentrations. Cells were incubated in the presence of compound for two hours at 37° C. Following this treatment period, cells were harvested by aspirating the media, adding 40 μL of kit-supplied 1x lysis buffer per well, and shaking for 30 minutes at 250 rpm at room temperature.
Following cell lysis, samples were homogenized by pipetting up and down twenty times and 16 μL of cell lysate per well was transferred from the 96-well cell culture plate to two wells of a 384-well detection plate. A complete detection buffer was prepared by diluting D2 and Eu Cryptate antibodies 1:20 in kit-provided detection solution, 4 μL of complete detection buffer was then added to each well with lysate. Plates were incubated with gentle rocking for 24 hours at 4° C.
Following this incubation period, plates were centrifuged at 500×g for one minute and analyzed on a CLARIOstar plate reader. Data was imported into Microsoft Excel and the signal from the 665 nm channel was divided by the signal from the 620 nm channel. % pERK was calculated as: […]
Data was imported to the Prism software package (Graphpad) and EC50 values were calculated using the log (inhibitor) vs, response—variable slopc (Four parameters) model.

SW620 cells (KRAS G12V) = experiment: Cell-based pERK HTRF assay in SW620 cell (Biological Example 4)
In short: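 Read-out: HTRF pERK signal (excitation 320 nm, emission 615 nm) from lysates of SW620 cells after 4 h compound exposure. Dose range was 9 points, half-log steps from 1 μM, in 0.25% DMSO; antibody incubation ran 4–24 h at room temperature.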

[3] = KRAS WT, GppNHp-loaded, class symbols
[4] = KRAS G12D, GppNHp-loaded, class symbols
[5] = Homo sapiens, SW-620, SW620 (KRAS G12V) cells
[6] = Homo sapiens, SW-620, SW620 (KRAS G12V) cells, pERK HTRF, class symbols
[7] = KRAS WT, GppNHp-loaded, Table 11
[8] = KRAS G12D, GppNHp-loaded, Table 11
[9] = Homo sapiens, SW-620, SW620 (KRAS G12V) cells, pERK HTRF

T2 sequence (P01116 1-169 isoform P01116-2 G12D): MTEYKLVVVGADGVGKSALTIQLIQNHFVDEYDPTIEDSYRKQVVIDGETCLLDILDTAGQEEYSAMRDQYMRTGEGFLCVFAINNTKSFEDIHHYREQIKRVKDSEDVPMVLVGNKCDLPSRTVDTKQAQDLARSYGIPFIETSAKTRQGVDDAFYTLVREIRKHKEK
T1 sequence (P01116 1-169 isoform P01116-2): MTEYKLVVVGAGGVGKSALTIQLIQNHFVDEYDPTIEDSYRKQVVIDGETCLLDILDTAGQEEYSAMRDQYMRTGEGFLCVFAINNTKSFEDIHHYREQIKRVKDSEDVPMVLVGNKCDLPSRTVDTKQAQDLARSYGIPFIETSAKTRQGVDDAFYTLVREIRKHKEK

| Structure (SMILES) | IC50 [1, 3] | IC50 [2, 4] | IC50 (SW620 cells (KRAS G12V); [5]) | IC50 (SW620 cells (KRAS G12V); [6]) | IC50 (SW620 cells (KRAS G12V); [9]) | IC50 ([1]; KRAS WT-GppNHp/RAF1 RBD HTRF) | IC50 ([2]; KRAS G12D-GppNHp/RAF1 RBD HTRF) | other results |
| --- | --- | --- | --- | --- | --- | --- | --- | --- |
| CCN(c1nc(OC[C@@]23CCCN2C[C@H](F)C3)nc2c(F)c(-c3ccc(F)c4sc(N)c(C#N)c34)c(C(F)(F)F)cc12)[C@H]1CCN(C(=O)C2CC2)[C@@H]1C (atropisomer, axis not shown) [Compound 579] | < 0.1 µM | < 0.1 µM | < 0.1 µM | < 0.1 µM | – | – | – | IC50 (SW1900 cells (KRAS G12D)): ≤ 0.1 µM |
| CCN(c1nc(OC[C@@]23CCCN2C[C@H](F)C3)nc2c(F)c(-c3ccc(F)c4sc(N)c(C#N)c34)c(C(F)(F)F)cc12)[C@H]1CCN(C(=O)c2ncco2)C1 (atropisomer, axis not shown) [Compound 584] | < 0.1 µM | < 0.1 µM | – | < 0.1 µM | – | – | – | IC50 (SW1900 cells (KRAS G12D)): ≤ 0.1 µM |
| CCN(c1nc(OC[C@@]23CCCN2C[C@H](F)C3)nc2c(F)c(-c3ccc(F)c4sc(N)c(C#N)c34)c(C(F)(F)F)cc12)[C@H]1C[C@@H](C)N(C(=O)C2COC2)C1 (atropisomer, axis not shown) [Compound 586] | < 0.1 µM | < 0.1 µM | < 0.1 µM | < 0.1 µM | – | – | – | IC50 (SW1900 cells (KRAS G12D)): ≤ 0.1 µM |
| CCN(c1nc(OC[C@@]23CCCN2C[C@H](F)C3)nc2c(F)c(-c3ccc(F)c4sc(N)c(C#N)c34)c(C(F)(F)F)cc12)[C@H]1CCN(C(=O)N2CC(F)C2)C1 (atropisomer, axis not shown) [Compound 606] | < 0.1 µM | < 0.1 µM | < 0.1 µM | < 0.1 µM | – | – | – | IC50 (SW1900 cells (KRAS G12D)): ≤ 0.1 µM |
| N#Cc1c(N)sc2c(F)ccc(-c3c(C(F)(F)F)cc4c(N5CCNS(=O)(=O)CC5)nc(OC[C@@]56CCCN5C[C@H](F)C6)nc4c3F)c12 [Compound 245] | – | – | < 0.1 µM | – | < 0.1 µM | – | – | IC50 [1, 7]: < 0.1 µM; IC50 [2, 8]: < 0.1 µM |
| N#Cc1c(N)sc2c(F)ccc(-c3c(C(F)(F)F)cc4c(N5C[C@H]6C[C@@H]5CO6)nc(OC[C@@]56CCCN5C[C@H](F)C6)nc4c3F)c12 [Compound 253, 2-amino-7-fluoro-4-[8-fluoro-2-[[(2R,8S)-2-fluoro-1,2,3,5,6,7-hexahydropyrrolizin-8-yl]methoxy]-4-[(1R,4R)-2-oxa-5-azabicyclo[2.2.1]heptan-5-yl]-6-(trifluoromethyl)quinazolin-7-yl]benzothiophene-3-carbonitrile] | – | – | < 0.1 µM | – | 0.1 to 1 µM | – | – | IC50 [1, 7]: 0.1 to 1 µM; IC50 [2, 8]: 0.1 to 1 µM |
| N#Cc1c(N)sc2c(F)ccc(-c3c(C(F)(F)F)cc4c(N5CCCC[C@@H](O)C5)nc(OC[C@@]56CCCN5C[C@H](F)C6)nc4c3F)c12 [Compound 286] | – | – | < 0.1 µM | – | < 0.1 µM | < 0.1 µM | < 0.1 µM | – |
| CC(=O)N1CC(N(C)c2nc(OCC34CCCN3CC(F)C4)nc3c(F)c(-c4ccc(F)c5sc(N)c(C#N)c45)c(C(F)(F)F)cc23)CC1C (stereo not drawn) [Compound 291] | – | – | – | – | – | 0.1 to 1 µM | 0.1 to 1 µM | IC50 (SW620 cells (KRAS G12V); SW620 (KRAS G12V) cells): < 0.1 µM; IC50 (SW620 cells (KRAS G12V); SW620 (KRAS G12V) cells, pERK HTRF): < 0.1 µM |
| CC(=O)N1C[C@H](N(C)c2nc(OC[C@@]34CCCN3C[C@H](F)C4)nc3c(F)c(-c4ccc(F)c5sc(N)c(C#N)c45)c(C(F)(F)F)cc23)C[C@@H]1C [Compound 298] | – | – | < 0.1 µM | – | < 0.1 µM | 0.1 to 1 µM | 0.1 to 1 µM | – |
| CCC(=O)N1CC[C@@H](N(CC)c2nc(OC[C@@]34CCCN3C[C@H](F)C4)nc3c(F)c(-c4ccc(F)c5sc(N)c(C#N)c45)c(C(F)(F)F)cc23)C1 [Compound 327] | – | – | < 0.1 µM | – | < 0.1 µM | 0.1 to 1 µM | 0.1 to 1 µM | – |
| CCN(c1nc(OC[C@@]23CCCN2C[C@H](F)C3)nc2c(F)c(-c3ccc(F)c4sc(N)c(C#N)c34)c(C(F)(F)F)cc12)[C@@H]1CCN(C(=O)C(C)C)C1 [Compound 328] | – | – | < 0.1 µM | – | < 0.1 µM | 0.1 to 1 µM | 0.1 to 1 µM | – |
| CCN(c1nc(OC[C@@]23CCCN2C[C@H](F)C3)nc2c(F)c(-c3ccc(F)c4sc(N)c(C#N)c34)c(C(F)(F)F)cc12)[C@@H]1CCN(C(=O)C2CC2)C1 [Compound 329] | – | – | < 0.1 µM | – | < 0.1 µM | 0.1 to 1 µM | 0.1 to 1 µM | – |
| CCN(c1nc(OC[C@@]23CCCN2C[C@H](F)C3)nc2c(F)c(-c3ccc(F)c4sc(N)c(C#N)c34)c(C(F)(F)F)cc12)[C@H]1CCN(C(=O)C2CC2)C1 [Compound 331] | – | – | < 0.1 µM | – | < 0.1 µM | 0.1 to 1 µM | < 0.1 µM | – |
| CN(C)C(=O)c1cc2n(n1)CCN(c1nc(OC[C@@]34CCCN3C[C@H](F)C4)nc3c(F)c(-c4ccc(F)c5sc(N)c(C#N)c45)c(C(F)(F)F)cc13)C2 [Compound 355] | – | – | < 0.1 µM | – | < 0.1 µM | 0.1 to 1 µM | 0.1 to 1 µM | – |
| [2H]C1([2H])O[C@@H]2C[C@H]1N(c1nc(OC[C@@]34CCCN3C[C@H](F)C4)nc3c(F)c(-c4ccc(F)c5sc(N)c(C#N)c45)c(C(F)(F)F)cc13)C2 [Compound 371] | – | – | < 0.1 µM | – | < 0.1 µM | 0.1 to 1 µM | 0.1 to 1 µM | – |
| CCN(c1nc(OC[C@@]23CCCN2C[C@H](F)C3)nc2c(F)c(-c3ccc(F)c4sc(N)c(C#N)c34)c(C(F)(F)F)cc12)[C@H]1CCN(C(=O)OC)C1 [Compound 394] | – | – | < 0.1 µM | – | < 0.1 µM | < 0.1 µM | < 0.1 µM | – |
| CCN(c1nc(OC[C@@]23CCCN2C[C@H](F)C3)nc2c(F)c(-c3ccc(F)c4sc(N)c(C#N)c34)c(C(F)(F)F)cc12)[C@H]1CCN(C(=O)C2CC2(F)F)C1 (stereo partly drawn) [Compound 581] | < 0.1 µM | < 0.1 µM | < 0.1 µM | < 0.1 µM | – | – | – | – |
| N#Cc1c(N)sc2c(F)ccc(-c3c(C(F)(F)F)cc4c(N5CCn6nc(C(=O)N7CCOCC7)cc6C5)nc(OCC56CCCN5CC(F)C6)nc4c3F)c12 (stereo not drawn) [Compound 646] | 0.1 to 1 µM | < 0.1 µM | < 0.1 µM | < 0.1 µM | – | – | – | – |
| CCN(c1nc(OC[C@@]23CCCN2C[C@H](F)C3)nc2c(F)c(-c3ccc(F)c4sc(N)c(C#N)c34)c(C(F)(F)F)cc12)[C@H]1CCN(C(=O)C2C[C@@H]2F)C1 (stereo partly drawn) [Compound 692] | < 0.1 µM | < 0.1 µM | < 0.1 µM | < 0.1 µM | – | – | – | – |
| N#Cc1c(N)sc2c(F)ccc(-c3c(C(F)(F)F)cc4c(N(C5CC5)[C@H]5CCS(=O)(=O)C5)nc(OC[C@@]56CCCN5C[C@H](F)C6)nc4c3F)c12 [Compound 702] | 1 to 10 µM | 1 to 10 µM | 0.1 to 1 µM | 0.1 to 1 µM | – | – | – | – |
| CCN(c1nc(OC[C@]23CCCN2C[C@H](F)C3)nc2c(F)c(-c3ccc(F)c4sc(N)c(C#N)c34)c(C(F)(F)F)cc12)[C@H]1CCN(C(=O)C(C)C)C1 [Compound 705] | < 0.1 µM | < 0.1 µM | < 0.1 µM | < 0.1 µM | – | – | – | – |
| CCN(c1nc(OC[C@@H]2C[C@@H](OC)CN2C)nc2c(F)c(-c3ccc(F)c4sc(N)c(C#N)c34)c(C(F)(F)F)cc12)[C@H]1CCN(C(=O)C(C)C)C1 [Compound 706] | 0.1 to 1 µM | 0.1 to 1 µM | < 0.1 µM | < 0.1 µM | – | – | – | – |
| Cc1c(C(=O)N2CCOCC2)nn2c1CN(c1nc(OCC34CCCN3CC(F)C4)nc3c(F)c(-c4ccc(F)c5sc(N)c(C#N)c45)c(C(F)(F)F)cc13)CC2 (stereo not drawn) [Compound 741] | 0.1 to 1 µM | < 0.1 µM | < 0.1 µM | < 0.1 µM | – | – | – | – |
| Cc1c(C(=O)N2CCCC2)nn2c1CN(c1nc(OCC34CCCN3CC(F)C4)nc3c(F)c(-c4ccc(F)c5sc(N)c(C#N)c45)c(C(F)(F)F)cc13)CC2 (stereo not drawn) [Compound 744] | 0.1 to 1 µM | 0.1 to 1 µM | < 0.1 µM | < 0.1 µM | – | – | – | – |
